This passage reports melting point results from a melting point compilation (Tetko et al.; mined from patent text by program, amines drawn as free bases though some values may be those of a salt).

On to `Nc1cc(Sc2cccc3cnccc23)c(F)cc1[N+](=O)[O-]`, for which the melting point fell in the range of 217 to 220 °C.

The molecule `CCn1cc(C(=O)O)c(=O)cc1-c1cc(OC)c(OC)c(OC)c1` yielded a melting point of 200 to 201 °C.

Consider `COc1cc2c(Nc3ccc(Cl)cc3F)ncnc2cc1OCC1CCOC1` (configuration not stated), for which the melting point lay in the range of 201 to 202 °C.

`COC(=O)c1ccc(CNC(=O)C2Cc3ccccc3N2S(=O)(=O)c2ccc(-c3ccc(F)cc3)cc2)cc1` (configuration not stated): the melting point was in the range of 66 to 73 °C.

Consider `COc1ccccc1Oc1c(N)nc(-c2ncccn2)nc1OCCOc1ncc(Br)cn1`, for which the melting point fell in the range of 124 to 128 °C.

The molecule `C=C(C)C(=O)OCCNC(=O)Oc1cccc(OC(=O)c2ccccc2)c1` showed a melting point of 57.5 to 61.5 °C.

Regarding `COc1ccc2c(c1)OC(CNCCCOc1cnc3ccccc3c1)CC2` (configuration not stated), the melting point is 132 to 134 °C.

As to `CC(Oc1ccc(N)c([N+](=O)[O-])c1)c1cc(F)ccc1Cl` (configuration not stated), the melting point came to 110 °C.

On to `OC1CSC(Oc2cc(-c3ccnc(F)c3)ccc2Cl)C(O)C1O` (configuration not stated), for which the melting point is 162 °C.

Molecule `CN1C(=O)C2(COc3cc4c(cc32)OCCO4)c2c(-c3cn[nH]c3)cccc21` (configuration not stated) yielded a melting point of 250 to 251 °C.

Regarding `OC(c1ccc(F)cc1)c1cc(Br)cc(Br)c1` (configuration not stated), the melting point is 92 to 93 °C.

For the molecule `O=C(O)c1cc(F)c2cccnc2c1O`, the melting point lay within 277 to 279 °C.

As to `COc1cc(C)c2c(Oc3cccc(C(F)(F)F)c3)c(OC)cc(NC(C)CCCN3C(=O)c4ccccc4C3=O)c2n1` (configuration not stated), the melting point was in the range of 117 to 119 °C.

`c1ccc2c(c1)C[C@H]1CSC(=Nc3cnccn3)N1C2` yielded a melting point of 140 °C.

In the case of `Nc1sc2c(c1C(=O)c1ccc(Cl)cc1)CCN(C(=O)Nc1ccccc1)C2`, the melting point is 216 to 217 °C.

The molecule `COc1ccc2ncc([N+](=O)[O-])c(O)c2c1` gave a melting point of 278 to 281 °C.

Molecule `COc1ccc2oc(C(=O)O)c(OC)c2c1` yielded a melting point of 168 °C.

With `CC(=O)OCC(O)(CN(C)S(=O)(=O)c1ccc(Cl)c(C)c1)c1cccc(Cl)n1` (configuration not stated), the melting point lay within 92 to 93 °C.

The molecule `COc1ccc2cc3c(Cl)nn(CCN(C)C)c3nc2c1` gave a melting point of 86 to 88 °C.

Regarding `C=CC12COc3cc(Cl)ccc3C1=NN(C(=O)Nc1ccc(C(F)(F)F)cc1)C2` (configuration not stated), the melting point fell in the range of 157 to 161 °C.

`CP(=O)(O)CCC(=O)O`: the melting point stood at 95 °C.

`CC(C)(C#N)c1c(Cl)cc(N)cc1Cl` displayed a melting point of 208 °C.

In turn, `COc1ccc2[nH]c(Br)c(CCNC(=O)C3CC3)c2c1` yielded a melting point of 82 to 83 °C.

`CN(C)C(=O)CCC(=O)c1ccccc1` yielded a melting point of 56 to 58 °C.

Regarding `CN1CCC(=O)C(=C2SC=CS2)C1=O`, the melting point lay within 148 to 153 °C.

The molecule `O=[N+]([O-])C=C1NCCN1c1ccc(Cl)nc1` yielded a melting point of 201 °C.

`O=C(c1ccccc1Nc1ccc(O)cc1)N1CCOCC1` yielded a melting point of 214 to 216 °C.

Molecule `COc1ccc(C2(C#Cc3ccc(C(=O)O)cc3)CCC(=O)CC2)cc1OC1CCCC1` showed a melting point of 170 to 171 °C.

For `CCOC(=O)C1=C(c2ccccc2)N(c2ccccc2)C(=O)C1C(=O)c1ccccc1` (configuration not stated), the melting point fell in the range of 137 to 139 °C.

In the case of `CC1CC(=O)C2OCC1O2` (configuration not stated), the melting point was in the range of 122 to 125 °C.

`CC(Cc1ccc(OCC(N)=O)cc1)NCC(OCCO)c1ccc(O)cc1` (configuration not stated) showed a melting point of 145 to 160 °C.

Take `COc1c(C)cc(-c2[nH]c3ccc(NS(=O)(=O)c4ccc(C)cc4)cc3c2C)cc1C`: the melting point was in the range of 192 to 194 °C.

The molecule `CCC12CCC3c4ccc(OC)cc4CCC3C1CCC2OCCO` (configuration not stated) gave a melting point of 131 to 132 °C.

With `NCC(O)c1ccc([N+](=O)[O-])cc1` (configuration not stated), the melting point lay in the range of 138 to 139 °C.

On to `CCCCCCCCCCCCCCCCCC(=O)c1ccc(O)c(C(=O)OC(C)C)c1`, for which the melting point fell in the range of 72 to 73 °C.

On to `COc1ccc(-c2oc3ccc(CC(=O)N4CCN(c5ccccc5)CC4)cc3c2SC)cc1OC`, for which the melting point amounted to 160 °C.

Turning to `CC(=O)CC(=O)CCCCCCCC(=O)CC(C)=O`, the melting point fell in the range of 73 to 74 °C.

`COCCOc1cccc2cc(-c3nnn[nH]3)c(=O)oc12`: the melting point was determined as 215 °C.

Molecule `CNS(=O)(=O)c1ccc(N)c(C(=O)N2CCNCC2)c1` displayed a melting point of 169 °C.

Regarding `COC(=O)c1cccc(-c2nc(COc3ccc(CON4CC(C=O)=CN4c4ccccc4)cc3OC)c(C)o2)c1`, the melting point was 164 to 165 °C.

Turning to `O=C(Nc1cccc([N+](=O)[O-])c1)c1ccccc1SSc1ccccc1C(=O)Nc1cccc([N+](=O)[O-])c1`, the melting point is above 270 °C.

As for `COc1ccc(CNn2c(=O)ccc3cnc(S(C)(=O)=O)nc32)cc1Cl`, the melting point is 212 to 214 °C.

The molecule `Cc1ccc(Nc2nc(C)c(-c3nc4ccccc4c(=O)n3-c3ccc(Cl)cc3)s2)cc1` came in with a melting point above 275 °C.

The molecule `CCCc1nn(C)c2c(=S)[nH]c(-c3ccccc3OCC)nc12` came in with a melting point of 156 to 158 °C.

As to `O=C(CCc1ccccc1)N[C@H](Cc1ccc(C(F)(F)F)cc1)[C@@H](O)c1ccccc1F` (racemic), the melting point fell in the range of 124 to 125 °C.

The molecule `O=C(c1ccccc1)N1CCc2[nH]c3cc(-c4ccccc4)ccc3c2CC1` gave a melting point of 213 to 232 °C.

`CC(C)(C)c1ccc(-c2nc3ccc(C(=O)O)cc3[nH]2)cc1` had a melting point of 212 °C.

`CCOC(=O)C1CC(O)CN1C(=O)c1ccc2c(c1)OCO2` (configuration not stated) came in with a melting point of 98 °C.

Molecule `Cn1c(C(=O)N[C@H]2CCCC[C@H]2C(=O)N[C@H](C#N)C2CC2)cc2ccccc21` showed a melting point of 242 to 246 °C.

As to `CN(C)C(=O)C(C)(C)n1cc(Cl)c(-c2ccccc2)n1`, the melting point fell in the range of 117 to 119 °C.

Consider `NC(=O)CNC(=O)c1cncc(-c2cccc3cc(Cc4cc(F)cc(Cl)c4)sc23)c1`, for which the melting point was in the range of 176 to 177 °C.

For `Cc1cc(S(=O)(=O)Nc2cccc(Br)c2)c2c(C)ccc(C(C)C)cc1-2`, the melting point was 172 to 174 °C.

Molecule `CC(=O)C(O)C1OC(n2cnc3c(NC4CCCc5ccccc54)ncnc32)C(O)C1O` (configuration not stated) displayed a melting point of 87 to 97 °C.

For `Cc1c(-c2ccc(NC(=O)C(C)C)cc2)sc2c1c(=O)c(C(=O)C(C)C)cn2Cc1c(F)cccc1F`, the melting point is 219 to 222 °C.

Molecule `COc1cc(C(=O)NS(=O)(=O)c2ccccc2C)ccc1Cc1cn(C)c2ccc(C(=O)O)cc12` returned a melting point of 255 to 257 °C.

`O=S(=O)(c1ccc(Br)cc1)N1CCC(CN2CCC(c3ccncc3)CC2)CC1`: the melting point fell in the range of 163 to 164 °C.

For `CC(C)(C)C(=O)OCc1nc(-c2cc(C(C)(C)C)c(O)c(C(C)(C)C)c2)cs1`, the melting point was 115 to 116 °C.

With `CCOc1ccc2c(c1)C(C)(c1cc(NC(=O)CN(C)C)ccc1Cl)C(=O)N2S(=O)(=O)c1ccc(C(=O)NC(C)(C)C)cc1OC` (configuration not stated), the melting point worked out at 150 °C.

The molecule `N=C(NS(=O)(=O)C=Cc1ccc([N+](=O)[O-])cc1)c1ccc([N+](=O)[O-])cc1` gave a melting point of 173 to 177 °C.

Consider `COCn1nc(Nc2cnccn2)c2cc(-c3ncccc3Cl)cc(OCCc3ccccn3)c21`, for which the melting point lay in the range of 120 to 122 °C.

As for `CSc1ccc(NC(=O)N2CC(c3ccc(C(F)(F)F)cn3)C(c3ccc(Cl)cc3)=N2)cc1` (configuration not stated), the melting point lay within 225 to 226 °C.

In turn, `CCOCC1OC(n2cc(C(F)(F)F)c(=O)[nH]c2=O)CC1O` (configuration not stated) yielded a melting point of 188 to 190 °C.

`C=CCc1cc(C(=O)OC)ccc1-c1ccc(OC)c(OC)c1`: the melting point lay within 99 to 103 °C.

Regarding `CCOC(=O)C1=C(C)NC(C#N)=C(C(=O)OCC)C1c1cc([N+](=O)[O-])ccc1Cl` (configuration not stated), the melting point is 204 to 206 °C.

In the case of `CCCc1nnc(-c2ccc(N(C)C)cc2)n1-c1ccc(OC)cc1`, the melting point came to 160 °C.

Consider `COc1cc(C)c(C(=O)c2c(Cl)cccc2Cl)cc1OC(F)F`, for which the melting point was in the range of 126 to 128 °C.

Molecule `CCc1cc2c(Sc3ccccn3)ncnc2s1` gave a melting point of 76.5 to 79 °C.

In turn, `COC(=O)C(C)(C)CCCN1CCN(C(=O)C=Cc2ccccc2)CC1` yielded a melting point of 76 °C.

In turn, `CC(C)S(=O)(=O)Nc1ccc(C(=O)Nc2ccc(Br)cc2)cc1` gave a melting point of 213 to 214 °C.

`C=Cc1cc(Cl)c(N)c(Cl)c1` showed a melting point of 63 °C.

Molecule `CSC(C(N)=O)c1ccccc1N` (configuration not stated) displayed a melting point of 98.5 to 99.5 °C.

The molecule `COC(=O)[C@H](CS)NC(=O)[C@@H](O)CO` displayed a melting point of 90 to 92 °C.

Turning to `Oc1c2c(nn1-c1ccccn1)CCCC2`, the melting point was in the range of 121 to 122 °C.

As for `COC(=O)CCCc1cc2nc(Cl)ccc2n1S(=O)(=O)c1ccc(Br)cc1`, the melting point turned out to be 102 °C.

Turning to `CC(C)(C)NC(=O)N(CCc1ccccc1)CC(O)C(Cc1ccccc1)NC(=O)C(CC(N)=O)NC(=O)c1ccc2ccccc2n1` (configuration not stated), the melting point lay within 139 to 140 °C.

`CCSCc1c(CCN(C)C)[nH]c2ccccc12` showed a melting point of 59 to 61 °C.

For `Nc1cc2[nH]c(=O)c(C(=O)O)nc2cc1F`, the melting point is above 300 °C.

The molecule `CC(C)N(Sc1ccc([N+](=O)[O-])cc1C(Cl)(Cl)Cl)C(C)C` came in with a melting point of 104 °C.

The molecule `COc1ccc(CN2CCc3cc(OCc4ccccc4)c(OC)cc3C2)cc1OC` registered a melting point of 98 to 99 °C.

`CCOC(=O)N1CCN(c2cc3nc(C(C)(C)C)sc3cc2N=C=S)CC1` yielded a melting point of 131 to 134 °C.

For `CCOc1nc(SC)nc(N2CCS(=O)CC2)c1C=O`, the melting point came to 163 °C.

With `O=C1NC(=S)SC1=Cc1ccc(C(F)(F)F)o1`, the melting point stood at 174 °C.

`CCc1noc(C)c1-c1[nH]c2ccccc2c1C(=O)CCC(=O)O` had a melting point of 98 to 110 °C.

In turn, `Cc1cc2c(-c3ccccc3C)c(C#N)n(C)c(=O)c2cc1C` registered a melting point of 217 to 218 °C.

Regarding `O=C(O)c1ccc(COCc2csc3nc(C(=O)NCc4cccc(C(F)(F)F)c4)[nH]c(=O)c23)cc1`, the melting point was in the range of 261 to 263 °C.

`CC(=O)NC[C@H]1CN(c2cc(F)c(N3CCC(Cc4noc(-c5ccccc5)n4)CC3)c(F)c2)C(=O)O1` yielded a melting point of 152 to 154 °C.

Regarding `CC(=O)OC(c1cccnc1)c1c(O)c(=O)ccn1C` (configuration not stated), the melting point is 153 to 154 °C.

What is called melting point is the temperature of the solid-liquid transition.
